Source: US12570642B2, “GLP-IR modulating compounds” (Gilead Sciences, Inc., priority 2021, dated 2026)

What follows are compounds tested against GLP-1R (Homo sapiens, UniProt P43220) (assay: GLP-1R Activation - cAMP Assay). Conditions: cAMP increase in CHO cells stably expressing GLP-1R; each compound run on one of the two cAMP assays (Assay 1 or Assay 2, not specified).
Assay type: cell-based
In short: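 CHO cells stably expressing GLP-1R, plated at 1,000 cells/well overnight, then equilibrated 1 h in HBSS with 20 mM Hepes and 0.1% BSA. Agonist added as 10-point dose response for 30 min at 37 °C. cAMP measured by HTRF (Cisbio Gs Dynamic kit); EC50 from sigmoidal fit.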

GLP-1R, sequence (P43220 24-463): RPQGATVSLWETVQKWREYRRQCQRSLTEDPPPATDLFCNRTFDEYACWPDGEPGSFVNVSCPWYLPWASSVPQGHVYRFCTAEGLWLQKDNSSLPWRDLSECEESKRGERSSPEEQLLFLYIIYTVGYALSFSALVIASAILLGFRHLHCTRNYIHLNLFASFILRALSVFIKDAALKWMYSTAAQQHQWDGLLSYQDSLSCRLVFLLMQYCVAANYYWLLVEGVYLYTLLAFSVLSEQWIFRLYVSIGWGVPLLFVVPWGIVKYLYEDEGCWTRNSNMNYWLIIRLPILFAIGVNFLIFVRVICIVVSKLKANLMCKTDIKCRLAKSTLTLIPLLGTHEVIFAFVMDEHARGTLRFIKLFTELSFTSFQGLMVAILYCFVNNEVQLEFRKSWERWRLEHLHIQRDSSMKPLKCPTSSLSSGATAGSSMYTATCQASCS

**Q.** Which EC50 does the source give for `CC1(C)COC[C@H]1n1c(Cc2cc(F)c(-c3cccc(OCc4c(F)cc(Cl)cc4F)n3)cc2F)nc2ccc(C(=O)O)cc21` [Example 489, (S)-2-(4-(6-((4-chloro-2,6-difluorobenzyl)oxy)pyridin-2-yl)-2,5-difluorobenzyl)-1-(4,4-dimethyltetrahydrofuran-3-yl)-1H-benzo[d]imidazole-6-carboxylic acid] here?
**A.** 0.342 nM

**Q.** With `CC1(C)COC[C@H]1n1c(Cc2cc(F)c(-c3cccc(OCc4cc(F)c(Cl)cc4F)n3)cc2F)nc2ccc(C(=O)O)cc21` [Example 490, (S)-2-(4-(6-((4-chloro-2,5-difluorobenzyl)oxy)pyridin-2-yl)-2,5-difluorobenzyl)-1-(4,4-dimethyltetrahydrofuran-3-yl)-1H-benzo[d]imidazole-6-carboxylic acid] as the compound, how does the EC50 read?
**A.** 0.182 nM

**Q.** For `CC1(C)COC[C@H]1n1c(Cc2cc(F)c(-c3ccc(F)c(OCc4cc(F)c(C#N)cc4F)n3)cc2F)nc2ccc(C(=O)O)cc21` [Example 491, (S)-2-(4-(6-((4-cyano-2,5-difluorobenzyl)oxy)-5-fluoropyridin-2-yl)-2,5-difluorobenzyl)-1-(4,4-dimethyltetrahydrofuran-3-yl)-1H-benzo[d]imidazole-6-carboxylic acid], which EC50 is on record?
**A.** 0.079 nM

**Q.** Which EC50 does the source give for `CC1(C)COC[C@H]1n1c(Cc2cc(F)c(-c3cccc(OCc4ccc(C#N)c(F)c4F)n3)cc2F)nc2ccc(C(=O)O)cc21` [Example 492, (S)-2-(4-(6-((4-cyano-2,3-difluorobenzyl)oxy)pyridin-2-yl)-2,5-difluorobenzyl)-1-(4,4-dimethyltetrahydrofuran-3-yl)-1H-benzo[d]imidazole-6-carboxylic acid] here?
**A.** 0.191 nM

**Q.** For `CC1(C)COC[C@H]1n1c(Cc2cc(F)c(-c3cccc(OCc4c(F)cc(C#N)cc4F)n3)cc2F)nc2ccc(C(=O)O)cc21` [Example 493, (S)-2-(4-(6-((4-cyano-2,6-difluorobenzyl)oxy)pyridin-2-yl)-2,5-difluorobenzyl)-1-(4,4-dimethyltetrahydrofuran-3-yl)-1H-benzo[d]imidazole-6-carboxylic acid], which EC50 is on record?
**A.** 0.278 nM

**Q.** Which EC50 does the source give for `C[C@H]1COC[C@H]1n1c(Cc2cc(F)c(-c3cccc(OCc4ccc(C#N)cc4F)n3)cc2F)nc2ccc(C(=O)O)cc21` [Example 494, 2-(4-(6-((4-cyano-2-fluorobenzyl)oxy)pyridin-2-yl)-2,5-difluorobenzyl)-1-((3S,4R)-4-methyltetrahydrofuran-3-yl)-1H-benzo[d]imidazole-6-carboxylic acid] here?
**A.** 0.051 nM

**Q.** How did the EC50 turn out when `CC1(C)COC[C@H]1n1c(Cc2cc(F)c(-c3ccc(F)c(OCc4ccc(Cl)cc4F)n3)cc2F)nc2c(F)cc(C(=O)O)cc21` [Example 495, (S)-2-(4-(6-((4-chloro-2-fluorobenzyl)oxy)-5-fluoropyridin-2-yl)-2,5-difluorobenzyl)-1-(4,4-dimethyltetrahydrofuran-3-yl)-4-fluoro-1H-benzo[d]imidazole-6-carboxylic acid] was run?
**A.** 0.144 nM

**Q.** With `CC1(C)COC[C@H]1n1c(Cc2cc(F)c(-c3ccc(F)c(OCc4ccc(C#N)cc4F)n3)cc2F)nc2ccc(C(=O)O)cc21` [Example 496, (S)-2-(4-(6-((4-cyano-2-fluorobenzyl)oxy)-5-fluoropyridin-2-yl)-2,5-difluorobenzyl)-1-(4,4-dimethyltetrahydrofuran-3-yl)-1H-benzo[d]imidazole-6-carboxylic acid] as the compound, how does the EC50 read?
**A.** 0.026 nM

**Q.** `CC1(C)COC[C@H]1n1c(Cc2cc(F)c(-c3ccc(F)c(OCc4ccc(Cl)cc4F)n3)cc2F)nc2ccc(C(=O)O)cc21` [Example 497, (S)-2-(4-(6-((4-chloro-2-fluorobenzyl)oxy)-5-fluoropyridin-2-yl)-2,5-difluorobenzyl)-1-(4,4-dimethyltetrahydrofuran-3-yl)-1H-benzo[d]imidazole-6-carboxylic acid] was tested. Which EC50 did it give?
**A.** 0.206 nM

**Q.** For `CC1(C)COC[C@H]1n1c(Cc2cc(F)c(-c3cccc(OCc4c(F)cc(C#N)cc4F)n3)cc2F)nc2c(F)cc(C(=O)O)cc21` [Example 498, (S)-2-(4-(6-((4-cyano-2,6-difluorobenzyl)oxy)pyridin-2-yl)-2,5-difluorobenzyl)-1-(4,4-dimethyltetrahydrofuran-3-yl)-4-fluoro-1H-benzo[d]imidazole-6-carboxylic acid], which EC50 is on record?
**A.** 0.508 nM

**Q.** For `CC1(C)COCC1n1c(Cc2cc(F)c(-c3cccc(OCc4c(F)cc(Cl)cc4F)n3)cc2F)nc2c(F)cc(C(=O)O)cc21` (stereo not drawn) [Example 499, 2-(4-(6-((4-chloro-2,6-difluorobenzyl)oxy)pyridin-2-yl)-2,5-difluorobenzyl)-1-(4,4-dimethyltetrahydrofuran-3-yl)-4-fluoro-1H-benzo[d]imidazole-6-carboxylic acid], which EC50 is on record?
**A.** 0.508 nM

**Q.** `CC1(C)COC[C@H]1n1c(Cc2cc(F)c(-c3cccc(OCc4ccc(C#N)c(F)c4F)n3)cc2F)nc2c(F)cc(C(=O)O)cc21` [Example 500, (S)-2-(4-(6-((4-cyano-2,3-difluorobenzyl)oxy)pyridin-2-yl)-2,5-difluorobenzyl)-1-(4,4-dimethyltetrahydrofuran-3-yl)-4-fluoro-1H-benzo[d]imidazole-6-carboxylic Acid] was tested. Which EC50 did it give?
**A.** 0.203 nM

**Q.** For `CC1(C)COCC1n1c(Cc2cc(F)c(-c3cccc(OCc4cc(F)c(Cl)cc4F)n3)cc2F)nc2c(F)cc(C(=O)O)cc21` (stereo not drawn) [Example 501, 2-(4-(6-((4-chloro-2,5-difluorobenzyl)oxy)pyridin-2-yl)-2,5-difluorobenzyl)-1-(4,4-dimethyltetrahydrofuran-3-yl)-4-fluoro-1H-benzo[d]imidazole-6-carboxylic acid], which EC50 is on record?
**A.** 0.508 nM

**Q.** Which EC50 does the source give for `CC1(C)COCC1n1c(Cc2cc(F)c(-c3ccc(F)c(OCc4ccc(C(F)(F)F)cc4F)n3)cc2F)nc2c(F)cc(C(=O)O)cc21` (stereo not drawn) [Example 503, 2-(2,5-difluoro-4-(5-fluoro-6-((2-fluoro-4-(trifluoromethyl)benzyl)oxy)pyridin-2-yl)benzyl)-1-(4,4-dimethyltetrahydrofuran-3-yl)-4-fluoro-1H-benzo[d]imidazole-6-carboxylic acid] here?
**A.** 0.081 nM

**Q.** Which EC50 does the source give for `CC1(C)COCC1n1c(Cc2cc(F)c(-c3ccnc(OCc4ccc(C(F)F)cc4F)n3)cc2F)nc2c(F)cc(C(=O)O)cc21` (stereo not drawn) [Example 504, 2-(4-(2-((4-(difluoromethyl)-2-fluorobenzyl)oxy)pyrimidin-4-yl)-2,5-difluorobenzyl)-1-(4,4-dimethyltetrahydrofuran-3-yl)-4-fluoro-1H-benzo[d]imidazole-6-carboxylic acid] here?
**A.** 0.148 nM

**Q.** `CC1(C)COCC1n1c(Cc2cc(F)c(-c3cccc(OCc4ccc(C(F)F)cc4F)n3)cc2F)nc2c(F)cc(C(=O)O)cc21` (stereo not drawn) [Example 506, 2-(4-(6-((4-(difluoromethyl)-2-fluorobenzyl)oxy)pyridin-2-yl)-2,5-difluorobenzyl)-1-(4,4-dimethyltetrahydrofuran-3-yl)-4-fluoro-1H-benzo[d]imidazole-6-carboxylic acid] was tested. Which EC50 did it give?
**A.** 0.242 nM

**Q.** `COC(C)(C)C(C)n1c(Cc2cc(F)c(-c3cccc(OCc4ccc(Cl)cc4F)n3)cc2F)nc2ccc(C(=O)O)cc21` (stereo not drawn) [Example 507, 2-(4-(6-((4-chloro-2-fluorobenzyl)oxy)pyridin-2-yl)-2,5-difluorobenzyl)-1-(3-methoxy-3-methylbutan-2-yl)-1H-benzo[d]imidazole-6-carboxylic acid] was tested. Which EC50 did it give?
**A.** 0.351 nM

**Q.** With `CC1(C)COC[C@H]1n1c(Cc2cc(F)c(-c3cccc(OCc4ccc(Cl)cc4F)c3)cc2F)nc2ccc(C(=O)O)cc21` [Example 508, (S)-2-((3′-((4-chloro-2-fluorobenzyl)oxy)-2,5-difluoro-[1,1′-biphenyl]-4-yl)methyl)-1-(4,4-dimethyltetrahydrofuran-3-yl)-1H-benzo[d]imidazole-6-carboxylic acid] as the compound, how does the EC50 read?
**A.** 0.302 nM

**Q.** With `CC1(C)COC[C@H]1n1c(Cc2cc(F)c(-c3ccc(F)c(OCc4ccc(Cl)cc4F)c3)cc2F)nc2ccc(C(=O)O)cc21` [Example 509, (S)-2-((3′-((4-chloro-2-fluorobenzyl)oxy)-2,4′,5-trifluoro-[1,1′-biphenyl]-4-yl)methyl)-1-(4,4-dimethyltetrahydrofuran-3-yl)-1H-benzo[d]imidazole-6-carboxylic acid] as the compound, how does the EC50 read?
**A.** 0.144 nM

**Q.** For `COC(C)(C)Cn1c(Cc2cc(F)c(-c3cccc(OCc4ccc(Cl)cc4F)n3)cc2F)nc2ccc(C(=O)O)cc21` [Example 510, 2-(4-(6-((4-chloro-2-fluorobenzyl)oxy)pyridin-2-yl)-2,5-difluorobenzyl)-1-(2-methoxy-2-methylpropyl)-1H-benzo[d]imidazole-6-carboxylic acid], which EC50 is on record?
**A.** 0.509 nM

**Q.** With `COCCn1c(Cc2cc(F)c(-c3cccc(OCc4ccc(C#N)cc4)n3)cc2F)nc2ccc(C(=O)O)cc21` [Example 511, 2-(4-(6-((4-cyanobenzyl)oxy)pyridin-2-yl)-2,5-difluorobenzyl)-1-(2-methoxyethyl)-1H-benzo[d]imidazole-6-carboxylic acid] as the compound, how does the EC50 read?
**A.** 0.588 nM

**Q.** For `Cn1nnc2cc(COc3cccc(-c4cc(F)c(Cc5nc6ccc(C(=O)O)cc6n5[C@@H]5COCC5(C)C)cc4F)n3)ccc21` [Example 512, (S)-2-(2,5-difluoro-4-(6-((1-methyl-1H-benzo[d][1,2,3]triazol-5-yl)methoxy)pyridin-2-yl)benzyl)-1-(4,4-dimethyltetrahydrofuran-3-yl)-1H-benzo[d]imidazole-6-carboxylic acid], which EC50 is on record?
**A.** 0.515 nM

**Q.** With `Cn1nnc2ccc(COc3cccc(-c4cc(F)c(Cc5nc6ccc(C(=O)O)cc6n5[C@@H]5COCC5(C)C)cc4F)n3)cc21` [Example 513, (S)-2-(2,5-difluoro-4-(6-((1-methyl-1H-benzo[d][1,2,3]triazol-6-yl)methoxy)pyridin-2-yl)benzyl)-1-(4,4-dimethyltetrahydrofuran-3-yl)-1H-benzo[d]imidazole-6-carboxylic acid] as the compound, how does the EC50 read?
**A.** 0.208 nM

**Q.** `COCCn1c(Cc2cc(F)c(-c3cccc(OCc4ccc5c(c4)CN(S(C)(=O)=O)C5)n3)cc2F)nc2c(F)cc(C(=O)O)cc21` [Example 514, 2-(2,5-difluoro-4-(6-((2-(methylsulfonyl)isoindolin-5-yl)methoxy)pyridin-2-yl)benzyl)-4-fluoro-1-(2-methoxyethyl)-1H-benzo[d]imidazole-6-carboxylic acid] was tested. Which EC50 did it give?
**A.** 0.152 nM
